#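 Here, GI50 denotes the concentration required for 50% inhibition of growth. TGI marks complete inhibition of growth.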
# Assays:
# Assay in all cases: inhibition of tumour cell growth, NCI panel, 384-well format
# [1] = tested on: ACHN renal
# [2] = tested on: U251 glioblastoma
# [3] = tested on: HS 578T breast
# [4] = tested on: PC-3 prostate
# [5] = tested on: MDA-MB-435 melanoma
# [6] = tested on: HT29 colon
# [7] = tested on: NCI-H322M lung
# [8] = tested on: UO-31 renal
# [9] = tested on: M14 melanoma
# [10] = tested on: A498 renal
# [11] = tested on: CCRF-CEM leukemia
# [12] = tested on: SW-620 colon
# [13] = tested on: NCI/ADR-RES ovarian
compound,measurement,setting,value
CNC(=O)c1ccccc1Nc1nc(Nc2ccc3c(c2OC)CCC[C@H](N2CCN(CCO)CC2)C3)ncc1Cl,GI50,[1],584 nM
same,TGI,[1],2120 nM
same,GI50,[2],1430 nM
same,TGI,[2],2830 nM
same,GI50,[3],726 nM
same,TGI,[3],2030 nM
same,GI50,[4],2020 nM
same,TGI,[4],5060 nM
same,GI50,[5],833 nM
same,TGI,[5],3180 nM
same,GI50,[6],303 nM
same,TGI,[6],1350 nM
same,GI50,[7],806 nM
same,TGI,[7],2330 nM
same,GI50,[8],1080 nM
same,TGI,[8],2290 nM
same,GI50,[9],632 nM
same,TGI,[9],1850 nM
same,GI50,[10],488 nM
same,TGI,[10],1700 nM
same,GI50,[11],1860 nM
same,TGI,[11],3320 nM
same,GI50,[12],727 nM
same,TGI,[12],2100 nM
same,GI50,[13],2120 nM
same,TGI,[13],4370 nM

# Source: PubChem BioAssay (NCI)
